Assay results from patent US20220000807A1, “METHODS AND APPARATUS FOR TREATING A WOUND” (Chang Gung Memorial Hospital, Linkou, priority 2018, published 2022).

Assays:
[1] = tested on: severe, relapsing paronychia and pyogenic granuloma-like lesion on left thumb (induced by afatinib); experiment: Topical treatment of a patient with afatinib-induced paronychia and pyogenic granuloma-like lesion; format: in vivo, human; details: one patient; for improvement of paronychia and pyogenic granuloma-like lesion with previous topical treatment: previous treatment with all three agents, FIG. 1A
Source text: They were subsequently treated with topical 0.25% betaxolol drops once daily (Alcon Laboratories, USA) for 4 weeks under occlusion.

[2] = tested on: deep fissure over palms or soles induced by EGFR inhibitors; details: 10 patients; topical 0.25% drops once a day; FIG. 2A, 2B
Method: 10 patients with deep fissure over palms or soles induced by EGFR inhibitors were treated with topical 0.25% betaxolol drops (Alcon Laboratories, USA) once a day.

[3] = tested on: back incisions of rats; experiment: In vivo rat back incision wound healing study; details: for microscopic changes of the 1 cm×1 cm back wound: Day 10, 10 days of drops twice a day (0.25% betaxolol, 0.5% Timoptol), FIG. 4A-4C
Method: An in vivo study was performed to examine the effectiveness of a non-selective β blocker and a β1-blocker using rats. The rats were divided into 3 groups: (a) control (n=2); (b) non-selective […] blocker (n=1); and (c) β1-blocker (n=1). On Day 0 of the experiment, 3 back incisions were made on each rat. The size of the back incisions are 1.5 cm×1.5 cm, 1 cm×1 cm and 0.5 cm×0.5 cm for the top, middle and bottom incisions as shown on FIG. 4A.
The rats in the control group received no treatment, the rat in the non-selective β blocker group received 0.5% Timoptol drop (MSD, USA) twice a day (30 μl for the top incision, 13 μl for the middle incision and 3.3 μl for the bottom incision) and the rat in the β1-blocker group received 0.25% Betoptic drop (Alcon Laboratories, USA) twice a day (30 μl for the top incision, 13 μl for the middle incision and 3.3 μl for the bottom incision).

Compound	improvement of paronychia and pyogenic granuloma-like lesion with previous topical treatment [1]	microscopic changes of the 1 cm×1 cm back wound [3]	also measured
O=[N+]([O-])[O-].[Ag+] [silver nitrate]	without any improvement	–	–
CC(C)NCC(O)COc1ccc(CCOCC2CC2)cc1 (centres unmarked) [betaxolol]	–	almost completely healed with re-growth of fibroblasts, complete re-epithelization of epidermis, and no evidence of debri	resolution of paronychia and pyogenic granuloma-like lesion ([1]; topical 0.25% drops once daily for 4 weeks under occlusion, FIG. 1B): complete resolution of paronychia and pyogenic granuloma-like lesion; deep fissure wound healing [2]: healed within one week of treatment in all of the 10 patients; appearance of back incisions (erythema, size) ([3]; 0.25% drop twice a day, after 7 days of treatment, compared to 0.5% Timoptol drops and no treatment, FIG. 3C-3E): less erythematous and smaller in size
gentamicin sulfate	without any improvement	–	–
CC(C)(C)NC[C@H](O)COc1nsnc1N1CCOCC1.O=C(O)/C=C\C(=O)O [Timoptol]	–	incompletely healing, characterized with incomplete re-epithelization of the epidermis, less fibroblast activity and evidence of debri	–
CCCCC(=O)O[C@]1(C(=O)CO)[C@@H](C)C[C@H]2[C@@H]3CCC4=CC(=O)C=C[C@]4(C)[C@@]3(F)[C@@H](O)C[C@@]21C [betamethasone valerate]	without any improvement	–	–
